Data as given in the NIST ThermoML archive (doi:10.1016/j.fluid.2010.05.010).
± gives the expanded uncertainty stated by the source.

Experiment: activity coefficient (dimensionless); of the first substance listed, at infinite dilution; xn = mol fraction of the nth substance listed
Conditions: 101 kPa, Liquid, x1 = 0

Structure (SMILES)	activity coefficient (273.35 K, Inert gas stripping)	activity coefficient (283.15 K, Inert gas stripping)	activity coefficient (293.15 K, Inert gas stripping)	activity coefficient (298.15 K, Inert gas stripping)	activity coefficient (303.15 K, Inert gas stripping)	activity coefficient (313.15 K, Inert gas stripping)	activity coefficient (323.15 K, Inert gas stripping)	activity coefficient (333.15 K, Inert gas stripping)	activity coefficient (293.15 K, Headspace solid-phase microextraction)	activity coefficient (298.15 K, Headspace solid-phase microextraction)	activity coefficient (303.15 K, Headspace solid-phase microextraction)
COC(=O)OC [dimethyl carbonate] + O	37.6 ± 0.2	43.8 ± 0.1	46.3 ± 0.1	48 ± 0.1	49.3 ± 0.1	50 ± 0.1	50.9 ± 0.1	50.3 ± 0.1			
C=COC(C)=O [vinyl acetate] + O	150 ± 1	161 ± 1	177 ± 1	181 ± 1	187 ± 1	190 ± 1	194 ± 1	187 ± 1			
CCOC(=O)OCC [diethyl carbonate] + O	246 ± 1	299 ± 1	353 ± 1	374 ± 1	394 ± 1	408 ± 1	394 ± 1	388 ± 1			
C=C(C)C(=O)OC [methyl methacrylate] + O	283 ± 1	321 ± 1	366 ± 1	380 ± 1	390 ± 1	403 ± 1	403 ± 1	394 ± 1	380 ± 1	389 ± 1	382 ± 1
